Data: paper PMC12192727, “Strategies to Develop Na,K-ATPase-α4 Inhibitors as Male Contraceptives” (International Journal of Molecular Sciences, 2025)
Values after ≈ are worked out from the molar mass of the structure shown.

How the values were obtained:
[1] = physchem; format: physicochemical; settings: PBS pH 7.4; read-out: Solubility
Method: The stock solutions of 11 and 45 were prepared in DMSO at a concentration of 30 mM, and the stock solution of the control compound was prepared in DMSO at a concentration of 30 mM. Progesterone was used as a positive control in the assay. An amount of 10 µL of stock solution of each compound was placed in order into their proper 96-well rack, followed by adding 990 µL of PBS at pH 7.4 into each vial of the capless Solubility Sample plate. This study was performed in duplicate. One stir stick was added to each vial and then sealed using a molded PTDE/SIL 96-Well Plate Cover (Pharmaron, Waltman, MA, USA). The Solubility Sample plate was transferred to the Thermomixer Comfort plate shaker and incubated at RT for 2 h with shaking at 1100 rpm. After 2 h of incubation, stir sticks were removed using a big magnet, and all samples from the Solubility Sample plate were transferred into the filter plate. All the samples were filtered using a vacuum manifold. The filtered samples were diluted with methanol. The soluble fraction (filtrate) was then analyzed by LC-MS/MS, and the compound concentration was determined using 0.3 μM standard solutions prepared from DMSO stocks. The experimental details are reported in the Supporting Information (Table S1). […]
Table S1 . Solubility Results of Test C ompound and Control C ompound in […]
Compound ID Solubility (µM)
Preparation of Stock Solutions: The stock solutions of test compounds were prepared in DMSO at the concentration of 30 mM, and the stock solution of control compound was prepared in DMSO at the concentration of 30 mM.
Progesterone was used as positive control in the assay.
Solubility Determination: 10 µL stock solution of each compound was placed in order into their proper 96-well rack, followed by adding 990 µL of PBS at pH 7.4 into each vial of the cap-less Solubility Sample plate. This study was performed in duplicate. One stir stick was added to each vial and then vials were sealed using a molded PTDE/SIL 96-Well Plate Cover. The Solubility Sample plate was transferred to the Thermomixer Comfort plate shaker and incubated at RT for 2 hours with shaking at 1100 rpm. After 2 hours incubation, stir sticks were removed using a big magnet and all samples from the Solubility Sample plate were transferred into the filter plate. All the samples were filtered by using the Vacuum Manifold. The filtered samples were diluted with methanol. The dilution factor might be changed according to the solubility value and the LC/MS signal response. To prepare 0.3 µM Standards (STD), 30 mM DMSO compound stock solutions were diluted with DMSO to 300 µM and then diluted with methanol to obtain 0.3 µM STDs. Samples were analyzed by LC-MS/MS. All calculations were carried out using Microsoft Excel. The solution filtered was analyzed and quantified against a standard of known concentration in DMSO using LC coupled with Mass spectral peak identification and quantitation. The solubility values of the test compounds were calculated as follow DF means the dilution factor
1. Chromatographic conditions
Apparatus: Triple QuadTM 5500 instrument from AB Inc (Canada) with an ESI interface Column: XSelect Hss T3 2.5µ (2.1×50 mm) Column XP coupled with preguard column Mobile phase: 0.1% formic acid in acetonitrile (A) and 0.1% formic acid in water (B) […]

[2] = Solubility as noted when testing was attempted; format: physicochemical

Row | SMILES | Solubility [1] [µM] | Solubility (in words, precluded testing) [2]
1 | CC(=O)[C@H]1CC[C@H]2[C@@H]3CCC4=CC(=O)CC[C@]4(C)[C@H]3CC[C@]12C [Progesterone, reference compound] | 18.0 (≈ 5.66 µg/mL) | 
2 | C[C@]12CC[C@H]3[C@@H](CC=C4C[C@@H](O)CC[C@@]43C)[C@@H]1CC[C@@H]2n1cc(-c2ccccc2)nn1 [Compound 30, (3S,8R,9S,10R,13S,14S,17S)-10,13-Dimethyl-17-(4-phenyl-1H-1,2,3-triazol-1-yl)-2,3,4,7,8,9,10,11,12,13,14,15,16,17-tetradecahydro-1H-cyclopenta[a]phenanthren-3-ol] |  | inadequate solubility
3 | CC12CCC(=O)C=C1CCCC2c1cn(Cc2ccccc2)nn1 (stereo not drawn) [Compound 39, 5-(1-Benzyl-1H-1,2,3-triazol-4-yl)-4a-methyl-4,4a,5,6,7,8-hexahydronaphthalen-2(3H)-one] |  | poor solubility
